Columns and labels:
human neutrophils [1] = test: Reversal of dbcAMP, GMCSF and LPS mediated survival of neutrophils; assay type: cell-based; settings: 30 min pre-incubation with survival factor, then 20 h
Procedure: At least 500 cells were counted per slide and the percentage apoptosis calculated. Apoptosis and loss of membrane integrity was also assessed by flow cytometry using human recombinant annexin-V-FITC (Roche, UK) to measure phosphatidylserine (PS) exposure, in combination with propidium iodide (Sigma). Stock annexin-V-FITC was diluted at 1:500 in annexin-V binding buffer (500 ml Hanks Balanced Salt Solution containing […]) and was added at a volume of 280 μl to 5×10^4 cells, and then incubated on ice for 10 min. 1 μl of PI (stock 1 mg/ml) was added to the samples shortly before analysis using the EPICS XL2 flow cytometer (Beckman Coulter, High Wycombe, UK). Where apoptosis data are presented as annexin-V binding, apoptosis was also confirmed by morphological assessment.
Since CDK inhibitors were able to accelerate apoptosis, the inventors investigated whether these compounds could also reverse the effects of agents known to delay apoptosis through different signaling pathways (Riley, N. A. et al. Anti-inflammatory & Anti-Allergy Agents in Medicinal Chemistry 5, 3-12 (2006)). […] Lipopolysaccharide (LPS) binds to Toll-like receptor (TLR)4, that interacts with CD14 eventually leading to mitogen-activation kinases (MAPK), PI3K and/or NF-κB signaling to inhibit apoptosis. […] Apoptosis was assessed by annexin-V-FITC, and checked by morphology.

tumor = settings: cited from earlier work
Mcl-1 = Mcl-1 protein expression in neutrophils (western blot); assay type: cell-based, human
[2] = system: carrageenan-induced pleural inflammation; test: Carrageenan-induced pleurisy; assay type: in vivo, C57BL/6J mice
serum induced arthritis = test: Passively-induced (K/BxN serum) arthritis; assay type: in vivo, C57BL/6J mice; settings: 10 mg/kg i.p. on days 3-19 every second day
Procedure: Sera (100 μl) extracted from 60 day old arthritic K/B×N mice was injected intra-peritoneally into 6-8 week old female C57BL/6J mice (B&K, Hull, UK). Arthritis was scored by clinical examination. Briefly, a score of 1 was given for erythema alone or swelling of 1 digit. A score of 2 resulted from erythema plus swelling of the tarsal joints or swelling of the hock or wrist joint alone. A maximum score of 3 was achieved when swelling was present in both tarsal and hock joints, or both wrist and digits, or more than 2 digits and the tarsal joints. The score for each limb was added giving a maximum score of 12 and the mean score reflects the total score divided by the number of recipient mice per group.
Mice (n=10 in each group) were injected twice (days 0 and 3) with K/B×N serum derived from arthritic (day 60) K/B×N transgenic mice. Clinical scores were assessed on the days indicated.

caspase-3 = test: Caspase-3 cleavage in neutrophils (western blot); settings: 20 μM, 4 h
human neutrophils [3] = test: Human neutrophil apoptosis (annexin-V-FITC binding, confirmed by morphology); assay type: cell-based; settings: for rate of apoptosis, time course study: after 8 h, NG75 10 μM, HD 10 μM; for rate of constitutive apoptosis: increasing concentrations, over 20 h; for rates of apoptosis assessed by annexin V binding: stereoisomers at 20 μM, after 6 h, mean±s.e.m., n=4 donors, control 12.4±0.4%
[4] = 10 or 100 mg/Kg i.p., 36 h post-carrageenan
[5] = zVAD-fmk 1 μg/Kg i.p. at 4 h intervals
[6] = zVAD-fmk 1 μg/Kg i.p. at 4 h intervals, R-roscovitine 10 mg/Kg

For `CC[C@H](CO)Nc1nc(NCc2ccccc2)c2ncn(C(C)C)c2n1` [R-roscovitine, (R)-2-[{9-(1-methylethyl)-6-[(phenylmethyl)amino]-9H-purin-2-yl]amino}-1-butanol], which “effect on survival signals (dbcAMP, GMCSF, LPS delayed apoptosis)” value (human neutrophils [1]) is on record?
The value was “clearly is dominant over survival factor mediated effects”.

What about the tolerability (tumor; even with high doses of 2 g/kg) of the same molecule?
The tolerability was “well tolerated”.

What about the tumor size (tumor; systemic administration) of the same molecule?
The tumor size was “specific reduction in tumor size”.

And the “effect on GM-CSF mediated up-regulation of Mcl-1” value (Mcl-1; R-roscovitine 20 μM plus GM-CSF 50 U/ml, 4 h)?
The value was “inhibits GM-CSF mediated up-regulation of Mcl-1”.

And the “inhibition of total inflammatory cell number compared with vehicle control” value ([2]; 10 mg/kg i.p. 24 h after carrageenan, 36 h post-carrageenan)?
The value was “greater than 50%”.

And the “number of monocytes/macrophages and neutrophils” value ([2]; 10 mg/kg i.p., 36 h post-carrageenan)?
Its value is “reduction”.

What about the “lung inflammation (inflammatory infiltrate in lung sections)” value ([2]; 100 mg/Kg i.p., 36 h post-carrageenan) of the same molecule?
The value was “dramatically reduced”.

What about the “pleural cavity total cell numbers over seven days” value ([2]; 100 mg/kg i.p. at 24 h, all time points examined) of the same molecule?
The value was “marked resolution of inflammation”.

And the “amount of inflammatory cells in pleural cavity” value ([2]; 100 mg/kg i.p., 36 h post-carrageenan)?
Its value is “near baseline levels”.

And the “IFN-γ in the inflammatory exudate” value [2, 4]?
Its value is “diminished”.

And the “IL-6 in the inflammatory exudate” value [2, 4]?
Its value is “diminished”.

What about the “MCP-1 in the inflammatory exudate” value [2, 4] of the same molecule?
Its value is “diminished”.

What about the “edema formation (total exudate volume), decrease compared with saline control” value ([2]; 36 h post-carrageenan) of the same molecule?
Its value is “three-fold”.

What about the “inflammatory cell apoptosis and macrophages containing apoptotic bodies in the pleural cavity” value ([2]; 36 h post-carrageenan) of the same molecule?
Its value is “increase”.

And the “arthritis as assessed by clinical scores” value (serum induced arthritis)?
The value was “dramatically resolved quicker”.

What about the caspase-3 cleavage (caspase-3) of the same molecule?
Its caspase-3 cleavage is “results in caspase-3 cleavage”.

And the “rate of apoptosis, time course study” value (human neutrophils [3]; R-roscovitine 20 μM)?
Its value is “increased the rate of apoptosis dramatically”.

And the “rate of constitutive apoptosis” value (human neutrophils [3])?
Its value is “significantly increased”.

And the “rates of apoptosis assessed by annexin V binding” value (human neutrophils [3])?
The value was 75.9±3.5%.

Which “annexin-V/PI positive cell populations (secondary necrosis)” value (human neutrophils [3]; 20 h treatment) does the source give for `COc1ccc(CNc2nc(N[C@@H](CO)C(C)C)nc3c2ncn3C(C)C)cc1` [NG75, 2-(1R-isopropyl-2-hydroxyethylamino)-6-(4-methoxy-benzylamino)-9-isopropylpurine] here?
Its value is “increased number”.

And the “rate of apoptosis, time course study” value (human neutrophils [3]; R-roscovitine 20 μM)?
Its value is “increased the rate of apoptosis dramatically”.

What about the “annexin V positive cells” value (human neutrophils [3]; after 8 h of treatment) of the same molecule?
The value was “marked increase”.

What about the “rate of constitutive apoptosis” value (human neutrophils [3]) of the same molecule?
Its value is “significantly increased”.

Which “rates of apoptosis assessed by annexin V binding” value (human neutrophils [3]) does the source give for `CC[C@@H](CO)Nc1nc(NCc2ccccc2)c2ncn(C(C)C)c2n1` [S-roscovitine] here?
Its value is 75.6±3.3%.

For `COC(=O)C[C@H](NC(=O)[C@H](C)NC(=O)[C@@H](NC(=O)OCc1ccccc1)C(C)C)C(=O)CF` (racemic) [zVAD-fmk, z-Val-Ala-DL-Asp-fluoromethylketone], which “edema formation compared with saline or vehicle controls” value [2, 5] is on record?
Its value is “increasing”.

What about the “total inflammatory cell number compared with saline or vehicle controls” value [2, 5] of the same molecule?
Its value is “increasing”.

And the “effect on R-roscovitine increase in inflammatory cell apoptosis and macrophages containing apoptotic bodies” value [2, 6]?
Its value is “inhibited dramatically”.

And the “effect on R-roscovitine-induced decrease in inflammatory cells and edema formation” value [2, 6]?
Its value is “prevented”.

And the “effect on R-roscovitine induced apoptosis” value (human neutrophils [3]; zVAD-fmk 100 μM, R-roscovitine 20 μM, 6 h)?
Its value is “prevented R-roscovitine induced apoptosis”.

For “GM-CSF: pro-survival factor (R & D Systems)”, which “effect on fall of Mcl-1 levels in culture” value (Mcl-1; GM-CSF 50 U/ml) is on record?
Its value is “prevented”.
